Assay results: PubChem BioAssay (NCI)
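Step 1: Grow cells in 96-well plates. Step 2: Expose to compound for 48 hours at 5 concentrations. Step 3: Interpolate endpoints linearly; if unreached, use highest concentration. The concentration for 50% growth inhibition is given as GI50. Definition used: TGI = concentration required for complete inhibition of growth.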

How the values were obtained:
Test in all cases: NCI-60 cell line screen, 48 h
[1] = system: NCI-H23 lung
[2] = system: NCI-H460 lung
[3] = system: NCI-H522 lung
[4] = system: NCI/ADR-RES ovarian
[5] = system: OVCAR-3 ovarian
[6] = system: OVCAR-4 ovarian
[7] = system: OVCAR-5 ovarian
[8] = system: OVCAR-8 ovarian
[9] = system: PC-3 prostate
[10] = system: RPMI-8226 leukemia
[11] = system: RXF 393 renal
[12] = system: SF-268 CNS
[13] = system: SF-295 CNS
[14] = system: SF-539 CNS
[15] = system: SK-MEL-2 melanoma
[16] = system: SK-MEL-28 melanoma
[17] = system: SK-MEL-5 melanoma
[18] = system: SK-OV-3 ovarian
[19] = system: SN12C renal
[20] = system: SNB-19 CNS
[21] = system: SNB-75 CNS
[22] = system: SR leukemia
[23] = system: SW-620 colon
[24] = system: T-47D breast
[25] = system: TK-10 renal
[26] = system: U251 CNS
[27] = system: UACC-257 melanoma
[28] = system: UACC-62 melanoma
[29] = system: UO-31 renal

SMILES: COc1cc(/C=C2\C(=O)N(c3ccccc3)c3ccccc32)cc(OC)c1OC
- TGI [1]: 30.1 µM
- GI50 [2]: 3.82 µM
- TGI [2]: > 100 µM
- GI50 [3]: 6.31 µM
- TGI [3]: 23.3 µM
- GI50 [4]: 6.37 µM
- TGI [4]: 27.1 µM
- GI50 [5]: 5.93 µM
- TGI [5]: 26.1 µM
- GI50 [6]: 10.4 µM
- TGI [6]: 23.7 µM
- GI50 [7]: 14.1 µM
- TGI [7]: 29 µM
- GI50 [8]: 8.83 µM
- TGI [8]: 45.5 µM
- GI50 [9]: 3.13 µM
- TGI [9]: 16.1 µM
- GI50 [10]: 2.17 µM
- TGI [10]: 5.78 µM
- GI50 [11]: 0.107 µM
- TGI [11]: 2.87 µM
- GI50 [12]: 4.32 µM
- TGI [12]: 15.3 µM
- GI50 [13]: 17.8 µM
- TGI [13]: 81.3 µM
- GI50 [14]: 5.38 µM
- TGI [14]: 91.7 µM
- GI50 [15]: 11.7 µM
- TGI [15]: 30.7 µM
- GI50 [16]: 4.91 µM
- TGI [16]: 18.4 µM
- GI50 [17]: 7.29 µM
- TGI [17]: 26.7 µM
- GI50 [18]: 18.4 µM
- TGI [18]: 43.8 µM
- GI50 [19]: 5.4 µM
- TGI [19]: 24.7 µM
- GI50 [20]: 6.1 µM
- TGI [20]: 25.5 µM
- GI50 [21]: 4.82 µM
- TGI [21]: 18.8 µM
- GI50 [22]: 2.1 µM
- TGI [22]: 10.4 µM
- GI50 [23]: 5.96 µM
- TGI [23]: > 100 µM
- GI50 [24]: 5.02 µM
- TGI [24]: > 100 µM
- GI50 [25]: 16.3 µM
- TGI [25]: 37.3 µM
- GI50 [26]: 3.87 µM
- TGI [26]: 15.3 µM
- GI50 [27]: 6.66 µM
- TGI [27]: 19.9 µM
- GI50 [28]: 7.12 µM
- TGI [28]: 21.6 µM
- GI50 [29]: 13.7 µM
- TGI [29]: 31.3 µM
